In the supplement of paper PMC4858399:
Where a name gives a salt, the structure may show the parent alone.

What was measured:
Settings in all cases: exposure time 48 h
[1] = tested on: Caenorhabditis elegans N2; assay: lowest effective concentration for larval growth inhibition (size below effect threshold); higher = less potent
In short: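 Each well of a 96-well plate received 50 C. elegans N2 L1 larvae, which grew for 48 h at 20°C in K-medium containing killed bacteria, 1% DMSO and the chemical at 0.5, 1, 5, 10, 50, 100 or 200 µM. A Biosort recorded the extinction of every worm as its size, and these readings were log-transformed and averaged per well. The lowest effective concentration is defined as the first dose at which the plate-adjusted mean size falls below the threshold and stays below it at all higher doses; that threshold is 5.665.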

[2] = tested on: Caenorhabditis elegans N2; assay: AC50 for larval growth inhibition (Hill fit); higher = less potent
In short: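 Synchronised C. elegans N2 L1 larvae, 50 per well in 96-well plates, were grown at 20°C for 48 h in K-medium with killed OP50, 1% DMSO and 0.5–200 µM chemical. Worm size was read on a COPAS Biosort as extinction, log-transformed and averaged per well, and only wells holding at least 10 worms were kept. AC50 was obtained by a constrained Hill fit using weighted genetic-algorithm regression, with out-of-range values censored.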

[3] = tested on: Caenorhabditis elegans N2; assay: mean nematode size ln(EXT) after 48 h, plate-adjusted (DMSO control set to 6) (ln(EXT), control-adjusted); higher = larger nematodes / less growth inhibition
In short: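 Synchronised C. elegans N2 L1 larvae were grown for 48 h at 20°C in K-medium containing killed OP50, 1% DMSO and 0.5–200 µM chemical, at 50 per well and 4–6 wells per treatment. The Biosort recorded extinction for each worm, and a growth model removed debris. Worm size was obtained by natural-logging these values and averaging them per well. For plate adjustment, the vehicle control mean was subtracted and 6 was added.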

| Compound | lowest effective concentration [1] | AC50 for larval growth inhibition [2] | mean nematode size ln(EXT) (ln) ([3]; 0.5 µM) | mean nematode size ln(EXT) (ln) ([3]; 1 µM) | mean nematode size ln(EXT) (ln) ([3]; 5 µM) | mean nematode size ln(EXT) (ln) ([3]; 10 µM) | mean nematode size ln(EXT) (ln) ([3]; 50 µM) | mean nematode size ln(EXT) (ln) ([3]; 100 µM) | mean nematode size ln(EXT) (ln) ([3]; 200 µM) |
| --- | --- | --- | --- | --- | --- | --- | --- | --- | --- |
| CCOP(=S)(OCC)Oc1ccc([N+](=O)[O-])cc1 [Parathion] | ≤ 0.5 µM | 13.4 µM | 5.59 | 5.66 | 5.54 | 5.03 | 3.46 | 3.63 | 3.36 |
| CCC(CC)Nc1c([N+](=O)[O-])cc(C)c(C)c1[N+](=O)[O-] [Pendimethalin] | 200 µM | > 200 µM | 5.89 | 5.93 | 5.86 | 5.77 | 5.86 | 6.13 | 5.44 |
| Oc1c(Cl)c(Cl)c(Cl)c(Cl)c1Cl [Pentachlorophenol] | 50 µM | 146 µM | 5.82 | 5.94 | 5.92 | 5.89 | 5.6 | 5.01 | 4.2 |
| Clc1nc(Cl)c(Cl)c(Cl)c1Cl [Pentachloropyridine] | 50 µM | > 200 µM | 5.87 | 5.81 | 5.83 | 5.82 | 5.6 | 5.48 | 5.59 |
| O=C(O)C(F)(F)C(F)(F)C(F)(F)C(F)(F)C(F)(F)C(F)(F)C(F)(F)F [Pentadecafluorooctanoic acid ammonium salt] | 200 µM | > 200 µM | 5.88 | 5.86 | 5.85 | 5.84 | 5.83 | 5.68 | 5.43 |
| N=C(N)c1ccc(OCCCCCOc2ccc(C(=N)N)cc2)cc1 [Pentamidine isethionate salt] | 50 µM | 149 µM | 6.04 | 6.06 | 6 | 5.89 | 5.44 | 5.05 | 4.25 |
| CCCCC=O [Pentanal] | 200 µM | 185 µM | 5.98 | 5.93 | 5.9 | 6 | 6.05 | 6.02 | 5.56 |
| O=C(O)C(F)(F)C(F)(F)C(F)(F)C(F)(F)C(F)(F)C(F)(F)C(F)(F)C(F)(F)C(F)(F)F [Perfluorodecanoic acid] | 5 µM | 14.6 µM | 5.85 | 5.87 | 5.14 | 4.6 | 4.06 | 3.96 | 3.16 |
| O=C(O)C(F)(F)C(F)(F)C(F)(F)C(F)(F)C(F)(F)C(F)(F)F [Perfluoroheptanoic acid] | 100 µM | > 200 µM | 5.87 | 5.85 | 5.88 | 5.83 | 5.74 | 5.42 | 5.57 |
| O=C(O)C(F)(F)C(F)(F)C(F)(F)C(F)(F)C(F)(F)C(F)(F)C(F)(F)C(F)(F)F [Perfluorononanoic acid] | 10 µM | 39 µM | 5.85 | 5.84 | 5.81 | 5.61 | 4.27 | 3.92 | 3.1 |
| O=S(=O)(O)C(F)(F)C(F)(F)C(F)(F)C(F)(F)C(F)(F)C(F)(F)C(F)(F)C(F)(F)F [Perfluorooctane sulfonic acid] | 5 µM | 17.4 µM | 5.78 | 5.91 | 5.28 | 5.06 | 4.32 | 4.28 | 3.33 |
| NS(=O)(=O)C(F)(F)C(F)(F)C(F)(F)C(F)(F)C(F)(F)C(F)(F)C(F)(F)C(F)(F)F [Perfluorooctanesulfonamide] | 5 µM | 7.84 µM | 5.89 | 5.86 | 5.26 | 4.64 | 3.6 | 3.86 | 3.65 |
| O=C(O)C(F)(F)C(F)(F)C(F)(F)C(F)(F)C(F)(F)C(F)(F)C(F)(F)F [Perfluorooctanoic acid] | 100 µM | 60.2 µM | 6 | 6 | 5.94 | 6.02 | 5.75 | 5.24 | 5.31 |
| O=C(O)C(F)(F)C(F)(F)C(F)(F)C(F)(F)C(F)(F)C(F)(F)C(F)(F)C(F)(F)C(F)(F)C(F)(F)F [Perfluoroundecanoic acid] | 5 µM | 4.14 µM | 5.8 | 5.77 | 4.55 | 3.95 | 3.63 | 3.64 | 3.2 |
| CC1(C)C(C=C(Cl)Cl)C1C(=O)OCc1cccc(Oc2ccccc2)c1 (configuration not stated) [Permethrin] | 10 µM | 11.2 µM | 5.91 | 5.9 | 5.67 | 5.56 | 5.41 | 4.98 | 5.24 |
| c1ccc2c(c1)ccc1ccccc12 [Phenanthrene] | 10 µM | 5.56 µM | 5.95 | 5.89 | 5.84 | 3.51 | 3.73 | 4.1 | 3.29 |
| CCC1(c2ccccc2)C(=O)NC(=O)NC1=O [Phenobarbital sodium salt] | 200 µM | > 200 µM | 5.87 | 5.82 | 5.88 | 5.86 | 5.87 | 5.91 | 5.65 |
| CCC(C)(C)c1ccc(O)c(C(C)(C)CC)c1 [Phenol, 2,4-bis(1,1-dimethylpropyl)-] | 10 µM | 175 µM | 5.8 | 5.87 | 5.76 | 5.65 | 5.4 | 4.93 | 4.37 |
| O=C1OC(c2ccc(O)cc2)(c2ccc(O)cc2)c2ccccc21 [Phenolphthalein] | 200 µM | > 200 µM | 5.87 | 5.86 | 5.87 | 5.87 | 5.78 | 5.84 | 5.55 |
| CC(=O)[O][Hg][c]1ccccc1 [Phenylmercuric acetate] | ≤ 0.5 µM | 1.02 µM | 5.43 | 5.07 | 4.25 | 3.93 | 4.09 | 4.09 | 3.02 |
| CCOP(=S)(OCC)SCSCC [Phorate] | 100 µM | > 200 µM | 5.9 | 5.87 | 5.8 | 5.76 | 5.68 | 5.55 | 5.21 |
| CCOP(=S)(OCC)SCn1c(=O)oc2cc(Cl)ccc21 [Phosalone] | 10 µM | 9.77 µM | 5.76 | 5.7 | 5.97 | 4.73 | 4.26 | 4.06 | 3.72 |

| Compound | lowest effective concentration [1] | AC50 for larval growth inhibition [2] | mean nematode size ln(EXT) (ln) ([3]; 0.5 µM) | mean nematode size ln(EXT) (ln) ([3]; 1 µM) | mean nematode size ln(EXT) (ln) ([3]; 5 µM) | mean nematode size ln(EXT) (ln) ([3]; 10 µM) | mean nematode size ln(EXT) (ln) ([3]; 50 µM) | mean nematode size ln(EXT) (ln) ([3]; 100 µM) | mean nematode size ln(EXT) (ln) ([3]; 200 µM) |
| --- | --- | --- | --- | --- | --- | --- | --- | --- | --- |
| COP(=S)(OC)SCN1C(=O)c2ccccc2C1=O [Phosmet] | 10 µM | > 200 µM | 5.89 | 5.76 | 5.86 | 5.61 | 5.66 | 5.52 | 5.02 |
| CO/C=C(/C(=O)OC)c1ccccc1COc1cccc(C(F)(F)F)n1 [Picoxystrobin] | 50 µM | 48.6 µM | 5.95 | 5.83 | 5.92 | 5.89 | 4.97 | 4.26 | 4.61 |
| CCCCOCCOCCOCc1cc2c(cc1CCC)OCO2 [Piperonyl butoxide] | 50 µM | 76.9 µM | 5.87 | 5.86 | 5.8 | 5.86 | 5.48 | 5.43 | 5.41 |
| CCN(CC)c1nc(C)cc(OP(=S)(OC)OC)n1 [Pirimiphos-methyl] | 200 µM | 124 µM | 5.93 | 5.93 | 5.83 | 5.92 | 6.01 | 6.01 | 4.12 |
| O=S(=O)(O)C(F)(F)C(F)(F)C(F)(F)C(F)(F)C(F)(F)C(F)(F)F [Potassium perfluorohexanesulfonate] | 100 µM | > 200 µM | 5.85 | 5.87 | 5.87 | 5.85 | 5.76 | 5.55 | 5.31 |
| C#CCC1=C(C)C(OC(=O)C2C(C=C(C)C)C2(C)C)CC1=O (configuration not stated) [Prallethrin] | 200 µM | 188 µM | 5.85 | 6.08 | 6.07 | 6.04 | 5.94 | 6.04 | 4.41 |
| C[C@]12C=CC(=O)C=C1CC[C@@H]1[C@@H]2C(=O)C[C@@]2(C)[C@H]1CC[C@]2(O)C(=O)CO [Prednisone] | 100 µM | 52.4 µM | 6.09 | 5.82 | 5.85 | 5.87 | 5.86 | 5.47 | 5.62 |
| CCCN(CCOc1c(Cl)cc(Cl)cc1Cl)C(=O)n1ccnc1 [Prochloraz] | 200 µM | 153 µM | 6.11 | 6.19 | 6.19 | 6.29 | 5.98 | 5.98 | 3.41 |
| CCCN(CCC)c1c([N+](=O)[O-])cc(C(F)(F)F)c(N)c1[N+](=O)[O-] [Prodiamine] | 200 µM | > 200 µM | 6.07 | 6.18 | 6.02 | 5.75 | 5.99 | 5.92 | 5.1 |
| CCCSP(=O)(OCC)Oc1ccc(Br)cc1Cl (configuration not stated) [Profenofos] | 50 µM | 56.4 µM | 5.75 | 6.26 | 6.17 | 6.04 | 4.95 | 3.31 | 3.04 |
| CC(=O)[C@H]1CC[C@H]2[C@@H]3CCC4=CC(=O)CC[C@]4(C)[C@H]3CC[C@]12C [Progesterone] | 200 µM | > 200 µM | 5.84 | 5.84 | 5.86 | 5.9 | 5.72 | 5.95 | 5.58 |
| COc1nc(NC(C)C)nc(NC(C)C)n1 [Prometon] | 100 µM | > 200 µM | 5.72 | 5.83 | 5.84 | 5.75 | 5.87 | 5.61 | 5.53 |
| CSc1nc(NC(C)C)nc(NC(C)C)n1 [Prometryn] | 200 µM | > 200 µM | 5.83 | 5.76 | 5.87 | 6 | 5.79 | 5.86 | 5.37 |
| CCC(=O)Nc1ccc(Cl)c(Cl)c1 [Propanil] | 200 µM | > 200 µM | 5.8 | 5.75 | 5.7 | 5.93 | 6 | 5.96 | 5.04 |
| COCC(C)OCC(C)O (configuration not stated) [Propanol, 1 (or 2)-(2-methoxymethylethyoxy)-] | 200 µM | > 200 µM | 5.9 | 5.9 | 5.88 | 5.85 | 5.92 | 5.82 | 5.66 |
| C#CCOS(=O)OC1CCCCC1Oc1ccc(C(C)(C)C)cc1 (configuration not stated) [Propargite] | 200 µM | 150 µM | 5.95 | 6.19 | 5.99 | 6.05 | 5.82 | 5.88 | 3.35 |
| CC(C)Nc1nc(Cl)nc(NC(C)C)n1 [Propazine] | 200 µM | 102 µM | 5.99 | 6.05 | 6.03 | 6.09 | 6.04 | 5.83 | 5.55 |
| CCNP(=S)(OC)O/C(C)=C/C(=O)OC(C)C (configuration not stated) [Propetamphos] | 50 µM | > 200 µM | 5.88 | 5.88 | 5.75 | 5.71 | 4.95 | 5.45 | 3.98 |
| CCCC1COC(Cn2cncn2)(c2ccc(Cl)cc2Cl)O1 (configuration not stated) [Propiconazole] | 200 µM | > 200 µM | 6.02 | 6.09 | 6.16 | 6.21 | 5.95 | 5.93 | 5.05 |
| CCCOc1nn(C(=O)NS(=O)(=O)c2ccccc2C(=O)OC)c(=O)n1C [Propoxycarbazone-sodium] | 200 µM | > 200 µM | 5.79 | 5.97 | 6.22 | 6.16 | 5.99 | 5.96 | 5.38 |
| CCCOC(=O)c1cc(O)c(O)c(O)c1 [Propyl gallate] | 200 µM | 126 µM | 5.91 | 5.94 | 6.05 | 5.78 | 5.95 | 5.81 | 5.54 |
